{
  "source": "patent US9796757B2",
  "about": "“Compositions and method for treating thrombosis” (The Board of Trustees of the University of Illinois, priority 2013, dated 2017)",
  "key": {"lung ECs": {"test_system": "lung ECs", "experiment": "ex vivo isolated buffer-perfused mouse lung vWF secretion (ELISA of perfusate)", "method": "Anesthetized GNA12^−/−, GNA12^−/−/EC GNA13^−/−, GNAq^−/−, and GNAq^−/−/EC GNA11^−/− mice were instrumented with a tracheal tube, cannulated via pulmonary artery, and perfused with warmed Krebs buffer at a rate of 1 ml/min for 5 minutes to remove residual blood constituents followed by treatment for 20 minutes with 2 ml recirculating Krebs buffer to assess constitutive vWF secretion. […] Following lung perfusion, lungs were minced and snap-frozen in liquid nitrogen for subsequent determination of whole lung extract vWF levels.\n(§1) Mouse samples were collected and vWF level was measured by sandwich ELISA (Lu, et al. (2011) supra). One unit of vWF was defined as the amount present in 1 ml of mouse pooled normal plasma.\nTo address the role of G protein α subunits in constitutive (basal, spontaneous) vs. PAR-1-mediated vWF secretion from endothelial cells, vWF was measured in the ex vivo isolated buffer-perfused mouse lung (IPML). Lung preparations were used to exclude platelets as a source of vWF and also hepatic stellate cells as contributors of proteases that cleave ultra large vWF strings (Lenting, et al. (2012) supra). Ventilated WT, Gα12^−/−, and EC-Gαq^−/−; Gα11^−/− mouse lungs were cannulated and perfused with warmed recirculating RPMI media via pulmonary artery and left atrial catheters in situ. To assess basal vWF secretion, precleared blood-free lungs were perfused for 15 minutes with […] of 37° C. recirculating RPMI media (approximately the same volume as the normal mouse blood volume). Samples of the recirculating buffer were collected at 5 minute intervals over a period of 30 minutes and vWF (mU/ml perfusate) was measured by ELISA.\nTo assess the mechanism of thrombin-induced vWF release from ECs via PAR-1 activation, the PAR-1-specific synthetic peptide Thr-Phe-Leu-Leu-Arg (SEQ ID NO:3) was used to stimulate lung ECs. […] The initial slope of the vWF secretion curve was used to estimate the rate of vWF release following addition of Thr-Phe-Leu-Leu-Arg (SEQ ID NO:3), which was approximately 25 mU/mL/min in WT mouse lungs. […] Under these same conditions, basal vWF secretion in the pulmonary circulation of EC-Gαq^−/−; Gα11^−/− lungs was not different from that observed in WT mice, although Thr-Phe-Leu-Leu-Arg (SEQ ID NO:3)-induced vWF release was reduced by approximately 40%. […] The presence of EC WPB vWF in en face descending aorta and paraffin-embedded lung sections was verified by immunostaining and confocal microscopy. WT, Gα12^−/−, and Gα11^−/− tissues stained positive for vWF consistent with there being equivalent vWF synthesis and storage in WPBs in WT, Gα12^−/−, and Gα11^−/− mice."}, "HUVEC": {"test_system": "HUVEC", "experiment": "vWF immunostaining / WPB quantification by confocal microscopy in HUVEC", "type": "cell-based, human", "method": "Endothelial cells cultured on gelatin-coated glass bottom dishes were fixed with 4% paraformaldehyde, permeabilized with 0.1% TRITON X-100, blocked with 5% goat serum for 1 hour, and subsequently incubated with rabbit polyclonal antibody directed against vWF (0.5 μg/ml) or contral IgG overnight at 4° C. Coverslips were washed 3× with phosphate-buffered saline and incubated for 30 minutes at room temperature in the dark with ALEXAFLUOR 555 goat anti-mouse and ALEXAFLUOR 488-labeled goat anti-rabbit secondary antibody. Coverslips were washed with phosphate-buffered saline and embedded in mounting media (VECTASHIELD). Confocal microscopy was performed using a ZEISS LSM 510 Meta microscope (Carl Zeiss MicroImaging, Inc.) equipped with 488 nm and 543 nm excitation lasers and pinhole set to achieve 1 Airy unit.\nWeibel-Palade Bodies (WPBs) were identified based on vWF immunofluorescence staining, size (approximately 3 μm long and 0.3 μm wide), and shape (elongated organelles). […] The number of WPBs per cell was counted (n=10-30) and the average fluorescence intensity per WPB/cell determined.\nTo distinguish whether the inhibitory effect of Gα12 depletion on vWF secretion is due to inhibition of vWF secretion as opposed to impaired vWF production or storage, vWF immunostaining and confocal microscopy of control siRNA and Gα12 siRNA-treated HUVECs was performed in presence or absence of thrombin stimulation.\nTo elucidate the role of Gα12 in WPBs exocytosis, HUVEC were transfected with constitutively-active GFP-tagged Gα12^Q229L mutant, GFP-tagged Gα12^WT, or GFP alone, and then confocal images of vWF immunostaining were quantified.\nThe role of Gα12/αSNAP interactions in regulation of vWF secretion was analyzed using a two-step experimental approach. First, a library of Gα12-substitution mutants (Meigs, et al. (2005) J. Biol. Chem. 280(18):18049-18055) was used, in which the primary sequence of Gα12 was replaced with the Asn-Ala-Ala-Ile-Arg-Ser (SEQ ID NO:5; NAAIRS cassette) to assess domain-specific in vitro binding of Myc-tagged Gα12^Q229L with or without ‘NAAIRS’ substitution of N-terminal amino acids 4-9 (ΔN4-9) or 10-15 (ΔN10-15) to GST-αSNAP. […] Secondly, to assess the role of Gα12 interaction with α-SNAP in vWF secretion, a GFP-tagged α-SNAP Binding Domain (aa 10-15) minigene (GFP-SBD) was constructed based on the identified Gα12•GST-αSNAP interaction."}, "HPAEC": {"test_system": "HPAEC", "experiment": "vWF secretion assay and ELISA in HPAEC", "type": "cell-based, human", "details": "peptide 1 μM, 1 hour pre-incubation, ELISA (FIG. 2), listed as Myr-SBD peptide", "method": "vWF secretion assay was as previously described (Lui-Roberts, et al. (2005) J. Cell Biol. 170:627-636). In brief, 48 hours after transfection, endothelial cells were serum-deprived for 4 hours, washed, and incubated with fresh serum-free medium in presence or absence of 25 nM thrombin, A23187 (a calcium ionophore), or culture medium alone (vehicle control). Cell culture media was collected at various time points after agonist stimulation and centrifuged for 10 minutes at 13,000×g to remove cell debris. Supernatants were assayed for vWF content by ELISA. Cells were lysed to determine total vWF secreted per 10^6 cells. The concentration of vWF was expressed as mIU/ml/10^6 cells by relating the absorbance at 450 nm to a vWF standard curve. […] To prevent potential differences in releasable vWF, the same batch of HUVEC was used for all experiments, and control and siRNA treated cells were assessed at equivalent cell densities.\nThe role of G protein signaling in basal vs. PAR1-stimulated vWF secretion from confluent, low passage, and serum-deprived HUVECs and HPAECs was subsequently determined. […]\nIt was determined whether Gα12 interaction with αSNAP plays an important role in both basal and evoked VWF secretion from endothelial cell WPBs in vitro and in vivo. […] The effect of Gα12 and Myr-SBD on vWF secretion was assessed as was mortality associated with CLP/sepsis in rodent models. […]"}, "plasma vWF": {"test_system": "plasma vWF", "experiment": "plasma vWF after CLP or SHAM surgery in mice", "type": "in vivo", "details": "24 hours after SHAM or CLP surgery, i.v. 100 μl of 100 μM (~5 μM) at time of surgery, vs Myr-Scrambled peptide, n=3/group", "method": "Mice were anaesthetized by ketamine/xylazine as above and ventilated according to conventional methods. […] Plasma was prepared from citrated blood samples via centrifugation at 3,000×g for 15 minutes at room temperature and stored at −80° C. until vWF measurement by ELISA. The anesthetized mouse was then euthanized for lung tissue collection as described below.\nas §1\nIt was determined whether Gα12 interaction with αSNAP plays an important role in both basal and evoked VWF secretion from endothelial cell WPBs in vitro and in vivo. Myr-SBD peptide (1 μM; 1 hour pre-incubation) blocked both basal VWF secretion and that evoked by thrombin stimulation of HPAEC (FIG. 2). The effect of Gα12 and Myr-SBD on vWF secretion was assessed as was mortality associated with CLP/sepsis in rodent models. […] Importantly, reduced plasma vWF levels (FIG. 3B) were observed 24 hours after SHAM or CLP surgery in mice given 100 μl of 100 μM Myr-SBD (˜5 μM) as compared to mice treated with Myr-Scrambled peptide."}, "[1]": {"experiment": "tail-snip blood loss (primary hemostasis)", "type": "in vivo", "details": "EC-Gα13−/−; Gα12−/− mice; i.v. 2 μg/g BW", "method": "Mice were anaesthetized using 100 mg/kg ketamine and 5 mg/kg xylazine. Once unresponsive to tail pinch, 3-5 mm of the end of the tail was removed with a scalpel, the tail was immersed in 0.9% saline solution (37° C.), and time required for bleeding to stop was recorded (n=10 male mice/group, age 8-12 weeks) according to established methods (Lu, et al. (2011) Cell Res. 21:530-545). If no cessation of bleeding occurred after 30 minutes, the tail was cauterized with a cautery pencil and 30 minutes was recorded as the bleeding time. Blood loss during the bleeding time experiments was expressed as the accumulated amount of hemoglobin (Hb) bled into the container with phosphate-buffer saline in which tails were immersed. Hb (mg Hb/mL saline) was analyzed over the period of the experiment, using Hemocue HB201+ (Hemocue; Cypress, Calif.). Mice were allowed to recover in a clean cage. […]\nUsing megakaryocyte-restricted-Gα12/13 double knockout mice, it has been observed that Gα13-dependent signaling in platelets is important for hemostasis and thrombosis (Moers, et al. (2003) Nat. Med. 9(11):1418-1422). However, the molecular mechanisms and functional significance of endothelial cell Gα12 and Gα13 in primary hemostasis were not assessed. […] Hb accumulation from the cut tail immersed in saline solution was measured every 5 minutes for 15 minutes. […]"}},
  "note": "No end group written: not given here. *: point of attachment. Myristoyl = CCCCCCCCCCCCCC(=O)*",
  "data": [
    {"compound": "CCN1C(=O)C=CC1=O", "note": "[NEM, N-Ethylmaleimide]", "values": [
      {"measurement": "vWF secretion", "setting": "lung ECs; 1 mM added to recirculating lung perfusion system for 1 minute", "result": "abolished"}
    ]},
    {"compound": "GFP-SBD: GFP-tagged α-SNAP Binding Domain (aa 10-15) minigene expressed in HUVEC (RCLLPA; not fully specified; also: GFP-tagged minigene (fusion))", "values": [
      {"measurement": "thrombin-induced WPB exocytosis", "setting": "HUVEC; GFP-SBD minigene expressed in HUVEC", "result": "inhibited"},
      {"measurement": "intracellular vWF staining following thrombin stimulation", "setting": "HUVEC; GFP-SBD-expressing HUVECs, control GFP cells significantly reduced (FIG. 1)", "result": "remained unchanged"}
    ]},
    {"compound": "Myr-Arg-Cys-Leu-Leu-Pro-Ala (Myristoyl-RCLLPA) [Myr-SBD]", "values": [
      {"measurement": "basal VWF secretion", "setting": "HPAEC", "result": "blocks"},
      {"measurement": "thrombin-evoked VWF secretion", "setting": "HPAEC; thrombin stimulation", "result": "blocks"},
      {"measurement": "plasma vWF levels", "setting": "plasma vWF", "result": "reduced"}
    ]},
    {"compound": "Thr-Phe-Leu-Leu-Arg (TFLLR) [Thr-Phe-Leu-Leu-Arg (SEQ ID NO:3)]", "values": [
      {"measurement": "reduction of peptide-induced vWF release vs WT", "setting": "lung ECs; EC-Gαq−/−, Gα11−/− mouse lungs", "result": "approximately 40%"},
      {"measurement": "rate of vWF secretion", "setting": "lung ECs; Gα12−/− mouse lungs, 30 μM peptide in recirculating perfusate", "result": 3, "unit": "mU/mL/min"},
      {"measurement": "time to peak vWF level in perfusate", "setting": "lung ECs; WT mice, 30 μM peptide, remained constant for up to 1 hour", "result": "10 to 15", "unit": "min"},
      {"measurement": "rate of vWF release (initial slope of vWF secretion curve)", "setting": "lung ECs; WT mouse lungs, 30 μM peptide in recirculating perfusate", "result": "approximately 25 mU/mL/min"}
    ]},
    {"compound": "purified human plasma-derived vWF: purified human plasma-derived von Willebrand factor", "values": [
      {"measurement": "hemostasis (tail-snip blood loss)", "setting": "[1]", "result": "corrected"}
    ]},
    {"compound": "thrombin", "values": [
      {"measurement": "GFP-positive control cells showing reduced vWF positive WPBs", "setting": "HUVEC; HUVEC transfected with GFP alone, 25 nM thrombin for 15 minutes", "result": 80, "unit": "%"},
      {"measurement": "decrease in intracellular vWF staining", "setting": "HUVEC; control siRNA HUVEC, thirty minutes after thrombin treatment", "result": "> 80", "unit": "%"}
    ]}
  ]
}
